Measured values taken from patent publication US10219728B2, “Analyte monitoring: stabilizer for subcutaneous glucose sensor with incorporated antiglycolytic agent” (Abbott Diabetes Care Inc., priority 2005, dated 2019).
Read-outs that look alike come from different tables or passages of the source. One block for each compound: values may come before it.

Columns and labels:
[1] = system: blood clot (red blood cells adjacent to the sensor); experiment: Glucose depletion at sensors inserted into blood clots, current response followed over time; type: cell-based; conditions: sensor with approximately 138 micrograms racemic D-/L-glyceraldehyde as thin outer coating, control sensors about 2 hour
Description: Glucose sensors are inserted into small silicon tubes containing the appropriate biological fluid. The tubes are maintained at about 37 degrees Celsius, and the glucose sensor is monitored.
Antiglycolytic sensors were prepared by modification of control sensors (FREESTYLE NAVIGATOR®) as follows. A coating solution was prepared from 250 mg/mL of a racemic mixture of L-glyceraldehyde and D-glyceraldehyde, and 150 mg/mL in polymer PC-1306 (Biocompatibles, PLC), the former suspended and the latter dissolved in ethanol. The resulting antiglycolytic sensors had approximately 138 micrograms of the racemic mixture of D- and L-glyceraldehydes incorporated as a thin, outer coating. Both these sensors and control sensors (no antiglycolytic agents added) were then inserted into blood clots, and the current response was followed over time.
The depletion is much delayed (up to about 12 hours) in the glyceraldehydes-containing sensors.

[2] = Antiglycolytic-modified sensor and control sensor implanted side by side in the arm of a non-diabetic subject; type: in vivo; conditions: FREESTYLE NAVIGATOR sensor with overcoat of about 55 micrograms L-glyceraldehyde, versus control sensor
Description: A further example of the use of an antiglycolytic sensor is provided by its use in an in vivo environment. In this example, a control sensor (FREESTYLE NAVIGATOR®) is inserted in the arm of a non-diabetic subject, adjacent to a similar sensor, which has been modified by the addition of an antiglycolytic agent, L-glyceraldehyde. A coating solution was made 200 mg/mL in L-glyceraldehyde, and 150 mg/mL in polymer PC-1306 (Biocompatibles, PLC), both dissolved in ethanol. The FREESTYLE NAVIGATOR® sensor was then modified by dipping twice into this coating solution, yielding an overcoat containing about 55 micrograms of L-glyceraldehyde. […] Glucose readings below 60 mg/dL are not anticipated in non-diabetic subjects, and are therefore considered to be anomalous, reflecting either (a) sensor malfunctions, or more likely (b) local inhomogeneities of glucose concentration (in the vicinity of a wound, for example) wherein the glucose concentration deviates substantially from the systemic value. Such deviations are observed with some regularity in control sensors, but are not observed in sensors modified with L-glyceraldehyde.

[3] = 50 mg/ml boric acid with 150 mg/ml L-glyceraldehyde and 150 mg/mL PC in outer membrane, stress at 56° C. for nine days, nonheparin blood
Description: An example of the use of an antiglycolytic sensor containing borate minerals, boric acid or any precursor thereof, is provided by its testing in an in vitro environment. 50 mg/ml boric acid was mixed with 150 mg/ml L-glyceraldehyde and 150 mg/mL PC in 100% ethanol. The sensor was dipped three times with a 10 minute interval. The sensor was then cured overnight, and subjected to stress at 56° C. for nine days and subsequently tested in nonheparin blood.

SMILES: O=CC(O)CO (racemic) [glyceraldehydes, racemic mixture of L-glyceraldehyde and D-glyceraldehyde]
- glucose depletion period [1]: up to 12 hours

SMILES: O=C[C@@H](O)CO [L-glyceraldehyde]
- large negative deviation in signal (values well below 60 mg/dL) during the night [2]: not observed

- high background current after stress [3]: significantly reduced
- high background current after stress ([3]; listed as borate): reduced significantly
SMILES: OB(O)O [boric acid]
